Source: patent US20060030620A1, “Method for treating and/or preventing ischemia/reperfusion injury” (priority 2004, published 2006)

Key:
Format in all cases: in vivo, Spargue-Dawley rats
[1] = tested on: liver ischemia/reperfusion injury; test: Bile juice ALP during hepatic ischemia/reperfusion; details: after 120 minutes of reperfusion, MA 100 mg/kg
Protocol: (§1) The liver was then examined by the following assays.
(§2) The collected blood samples were centrifuged at 4000 g×5 min to separate the plasma, and the levels of aspartate transaminase (AST), alanine transaminase (ALT), and alkaline phosphatase (ALP) in the bile juice were measured with an auto-analyzer (model H-747E, Hitachi Co., Tokyo). Lipid peroxide was followed as Masugi and Nagamura stated by thiobarbituric acid method using malondialdehyde (MDA) tetraethyl acetal as the standard and expressed results of MDA equivalents.
(§3) Each data was expressed as mean±SD.

[2] = tested on: liver ischemia/reperfusion injury; test: Bile flow during hepatic ischemia/reperfusion
Source text: as §1, §3

[3] = tested on: liver ischemia/reperfusion injury; test: Lipid peroxidation assay (liver MDA, thiobarbituric acid method); set-up: post-ischemic MDA levels in liver: unit not given here
Protocol: as §1, §2
(§4) Protein contents of the collected tissues were assayed with Lowry using bovine serum albumin as the standard. The collected tissue was fixed in saline buffered with 10% formaldehyde solution, embedded in paraffin wax, sliced into 5 μm thickness of each, stained with H&E staining method, and examined with a light microscope by a pathologist independently.
as §3

[4] = tested on: liver ischemia/reperfusion injury; test: Plasma AST/ALT during hepatic ischemia/reperfusion
Protocol: as §1, §2, §3

[5] = tested on: liver ischemia/reperfusion injury; test: Histological investigation of the liver after hepatic I/R (H&E); details: 70 minutes of ischemia and 120 minutes of reperfusion; MA-treated ischemia group
Protocol: as §1, §4
Histological changes in liver after hepatic I/R were kept with the above biochemical experiments of plasma and bile juice analysis. The placebo group was shown on A (100×) and B (400×); wherein “1” is severe endothelial damage, “2” is bile duct dilation, “3,” is parenchyma edema with RBC congestion, “4,” is Cholestasis, and “5” is hepatocyte necrosis. […] The dilated bile duct might be attributed to ischemic process when the clamp was used to stop the blood flow and simultaneously obstruct the bile flow. Parenchyma edema and RBC congestion might develop from the inflammatory process during I/R process.

[6] = after 60 minutes of reperfusion, P<0.05
[7] = MA 100 mg/kg iv 10 min prior to reperfusion, 70 min ischemia, after 120-minute reperfusion, mean±SD
[8] = after 120 minutes of reperfusion, MA 100 mg/kg iv

Magnesium ascorbate
relief of the ALP in bile juice from I/R damage [1]: about 70%
bile ALP ([1]; mean±SD): 34.5±8.3 U/l
bile flow compared with the control group (sham) ([2]; P=0.21): significantly restored resemble to normal values
choleretic effect compared with the placebo group [2, 6]: significantly increased
secreted bile juice versus vehicle-treated ischemia group ([2]; after 120 minutes of reperfusion injury): significantly doubled
bile flow ([2]; after 120 minutes of reperfusion, MA 100 mg/kg iv, mean±SD): 1.353 ± 0.351 mL/h/kg
bile flow compared with the vehicle-treated ischemia group ([2]; from 60 minutes to 240 minutes of reperfusion, P<0.05): significantly restored
post-ischemic MDA levels in liver ([3]; 70 min ischemia and 120 min reperfusion, MA 100 mg/kg 10 min prior to reperfusion, mean±SD, P<0.02): 1054±414
MDA concentration in liver tissue versus vehicle-treated ischemia group ([3]; MA 100 mg/kg infusion 10 minutes prior to reperfusion, after 120 minutes of reperfusion): significantly decreased
increase in AST and ALT activity versus vehicle-treated ischemia rats ([4]; 1 to 4 hours after reperfusion, MA 100 mg/kg, P<0.05): significantly suppressed
average plasma AST level [4, 7]: 2040±882 U/l
plasma ALT level [4, 7]: 4466±1745 U/l
plasma AST levels compared with the placebo group ([4]; after 30 minutes of reperfusion, P<0.05): significantly decreased
plasma AST levels compared with the placebo group [4, 6]: significantly decreased
decrease of the elevated serum ALT level [4, 8]: 69%
decrease of the elevated serum AST level [4, 8]: 78%
histological findings of the liver (H&E) [5]: minor lesions were observed, damaged to the vascular endothelium and cholestasis was also mild
